Patent US10392383B2, “3-(1H-benzo[d]imidazol-2-yl)-1H-pyrazolo[4,3-b]pyridines and therapeutic uses thereof” (Samumed, LLC, priority 2015, dated 2019)

Tests used:
Type in all cases: cell-based
[1] = system: Wnt activity (Sp5-Luc reporter, Wnt-responsive promoter) in SW480 colon carcinoma cells; assay: Wnt activity screening assay: Sp5-Luc reporter gene assay in SW480 cells; settings: Homo sapiens; for inhibition at 10 µM: read-out: percent inhibition at 10 μM (given for EC50 of >10 μM); for EC50: overnight incubation, 10-point curve starting from 10 μM
Text: The screening assay for Wnt activity is described as follows. Reporter cell lines can be generated by stably transducing cancer cell lines (e.g., colon cancer) or primary cells (e.g., IEC-6 intestinal cells) with a lentiviral construct that includes a Wnt-responsive promoter driving expression of the firefly luciferase gene.
SW480 colon carcinoma cells were transduced with a lentiviral vector expressing luciferase with a human Sp5 promoter consisting of a sequence of eight TCF/LEF binding sites. SW480 cells stably expressing the Sp5-Luc reporter gene and a hygromycin resistance gene were selected by treatment with 150 μg/mL of hygromycin for 7 days. These stably transduced SW480 cells were expanded in cell culture and used for all further screening activities. Each compound was dissolved in DMSO as a 10 mM stock and used to prepare compound source plates. Serial dilution (1:3, 10-point dose-response curves starting from 10 μM) and compound transfer was performed using the ECHO 550 (Labcyte, Sunnyvale, Calif.) into 384-well white solid bottom assay plates (Greiner Bio-One) with appropriate DMSO backfill for a final DMSO concentration of 0.1%. For Sp5-Luc reporter gene assays, the cells were plated at 4,000 cells/well in 384-well plates with medium containing 1% fetal bovine serum and incubated overnight at 37° C. and 5% CO2. Following incubation, 20 μl of BrightGlo luminescence reagent (Promega) was added to each well of the 384-well assay plates. The plates were placed on an orbital shaker for 2 min and then luminescence was quantified using the Envision (Perkin Elmer) plate reader. Readings were normalized to DMSO only treated cells, and normalized activities were utilized for EC50 calculations using the dose-response log (inhibitor) vs. response-variable slope (four parameters) nonlinear regression feature available in GraphPad Prism 5.0 (or Dotmatics). For EC50 of >10 μM, the percent inhibition at 10 μM is provided.

SW480 colon cancer cells = assay: Cell viability assay (CellTiter-Blue) in SW480 cells; settings: Homo sapiens, 96 h, four days; for inhibition at 10 µM: read-out: percent inhibition at 10 μM (given for EC50 of >10 μM); for EC50: CellTiter-Blue, 10 μM to 0.0045 μM
Procedure: Representative compounds were screened using the following assay procedure to assess the effect on cell viability as described below.
Each compound was dissolved in DMSO as a 10 mM stock and used to prepare compound source plates. Serial dilution (1:3, 8-point dose-response curves from 10 μM to 0.0045 μM) and compound transfer was performed using the ECHO 550 (Labcyte, Sunnyvale, Calif.) into 96-well clear bottom, black-walled plates (Corning-Costar).
Approximately 2×10^3 SW480 colon cancer cells were seeded into each well and allowed to incubate in the presence or absence of compound for four days at 37° C./5% CO2. Eight replicates of DMSO-treated cells served as controls and cells treated with compound were performed in duplicate.
After incubation, 20 μL of CellTiter-Blue (Promega) was added to each well allowed to incubate for approximately 3 hours. This reagent was a buffered solution which contains resazurin, metabolically active cells were able to reduce rezarurin (blue) into resorufin (pink) which was highly fluorescent. This measured fluorescence was used as a readout for cell viability.
After incubation, the plates were read at Ex 560 nm Em 590 nm (Cytation 3, BioTek). Dose-response curves were generated and EC50 concentration values were calculated using non-linear regression curve fit in the GraphPad Prism (San Diego, Calif.) or Dotmatics' Studies Software (Bishops Stortford, UK). For EC50 of >10 μM, the percent inhibition at 10 μM is provided.

IL-6 (THP-1 cells) = assay: IL-6 inhibition in LPS-stimulated THP-1 monocytes (HTRF); settings: Homo sapiens, IL-6 HTRF; for EC50: 500 ng/mL LPS, Table 6; for inhibition at 10 µM: LPS, Table 6, read-out: percent inhibition at 10 μM (given in parentheses for EC50 >10 μM)
Procedure: Human Monocyte Cell Culture: Human monocyte cell line (THP-1 cells; Catalog # TIB-202, ATCC, Manassas, Va.) were cultured in Roswell Park Memorial Institute (RPMI) 1640 Medium (Catalog #21870-100, Buffalo, N.Y.) with 1% L-glutamine, 1% HEPES, 1% Sodium Pyruvate, 2% Sodium Bicarbonate supplemented with 100 units/mL penicillin, 50 μg/mL streptomycin, 2-mercaptoethanol (0.05 mM) [basal medium] and 10% fetal bovine serum (Catalog #16140089, Life Technologies, Carlsbad, Calif.) at 37° C. and 5% CO2.
Compound Screening: THP-1 cells were cultured in basal media with 1% FBS for 24 hours before the start of the assay. Each compound was dissolved in DMSO as a 10 mM stock and used to prepare compound source plates. Serial dilution (1:3, 10-point dose-response curves starting from 10 μM) and compound transfer was performed using the ECHO 550 (Labcyte, Sunnyvale, Calif.) into 384-well white low volume assay plates (Greiner Bio-One) with appropriate DMSO backfill for a final DMSO concentration of 0.1%. THP-1 cells were plated at 5000 cells/well in the 384-well plates and incubated at 37° C. for 2 h. 500 ng/mL of LPS was added after 2 hours and cells were incubated for another 22 hours at 37° C. Plates were spun in a centrifuge for 1 minute at […] and a mixture of anti-IL6 XL665, and anti-IL6 Cryptate diluted in reconstitution buffer (Cisbio Inc.) was added to each well. Following incubation for 3 hrs at room temperature, Homogeneous Time-Resolved Fluorescence (HTRF) was measured using the Envision (Perkin Elmer) at 665 nm and […]. The ratio of fluorescence at 665 nm to 620 nm was used as a readout for IL6 quantification. All samples were processed in duplicate. Readings were normalized to DMSO treated cells and normalized activities were utilized for EC50 calculations using the dose-response log (inhibitor) vs. response-variable slope (four parameters) nonlinear regression feature available in GraphPad Prism 5.0 (or Dotmatics). For EC50 of >10 μM, the percent inhibition at 10 μM is provided.

Row | SMILES | EC50 [1] | EC50 (SW480 colon cancer cells) | EC50 (IL-6 (THP-1 cells)) | inhibition at 10 µM [1] | inhibition at 10 µM (SW480 colon cancer cells) | inhibition at 10 µM (IL-6 (THP-1 cells))
1 | c1cc(-c2ccncc2)c2nc(-c3n[nH]c4ccc(-c5cnccn5)nc34)[nH]c2c1 [Compound 584, 5-(Pyrazin-2-yl)-3-(4-(pyridin-4-yl)-1H-benzo[d]imidazol-2-yl)-1H-pyrazolo[4,3-b]pyridine] | > 10 µM | > 10 µM | > 10 µM | 7.4% | 9.6% | 14.7%
2 | O=C(Nc1cncc(-c2ccc3[nH]nc(-c4nc5c(-c6ccsc6)cccc5[nH]4)c3n2)c1)c1ccccc1 [Compound 291, N-(5-(3-(4-(Thiophen-3-yl)-1H-benzo[d]imidazol-2-yl)-1H-pyrazolo[4,3-b]pyridin-5-yl)pyridin-3-yl)benzamide] | > 10 µM | 3.46 µM | > 10 µM | 42.5% |  | 28.9%
3 | Cc1ccc(-c2cccc3[nH]c(-c4n[nH]c5ccc(C6=CCNCC6)nc45)nc23)s1 [Compound 730, 3-(4-(5-Methylthiophen-2-yl)-1H-benzo[d]imidazol-2-yl)-5-(1,2,3,6-tetrahydropyridin-4-yl)-1H-pyrazolo[4,3-b]pyridine] | 1.01 µM | 0.642 µM | 9.16 µM |  |  | 
4 | COc1cccc(-c2cccc3[nH]c(-c4n[nH]c5ccc(-c6cn[nH]c6)nc45)nc23)c1 [Compound 1020, 3-(4-(3-Methoxyphenyl)-1H-benzo[d]imidazol-2-yl)-5-(1H-pyrazol-4-yl)-1H-pyrazolo[4,3-b]pyridine] | > 10 µM | > 10 µM | > 10 µM | 18.9% | 12.6% | 23.7%
5 | O=C(Cc1ccccc1)Nc1cncc(-c2ccc3[nH]nc(-c4nc5c(-c6ccncc6)cccc5[nH]4)c3n2)c1 [Compound 122, 2-Phenyl-N-(5-(3-(4-(pyridin-4-yl)-1H-benzo[d]imidazol-2-yl)-1H-pyrazolo [4,3-b]pyridin-5-yl)pyridin-3-yl)acetamide] | > 10 µM | 1.45 µM | > 10 µM | 44.4% |  | 40.3%
6 | c1cc(-c2ccncc2)c2nc(-c3n[nH]c4ccc(-c5cncc(OC6CCNCC6)c5)nc34)[nH]c2c1 [Compound 576, 5-(5-(Piperidin-4-yloxy)pyridin-3-yl)-3-(4-(pyridin-4-yl)-1H-benzo[d]imidazol-2-yl)-1H-pyrazolo[4,3-b]pyridine] | > 10 µM | > 10 µM | > 10 µM | 25.7% | 9% | 37%

Second part, led by results:

Row | EC50 [1] | EC50 (SW480 colon cancer cells) | EC50 (IL-6 (THP-1 cells)) | SMILES | inhibition at 10 µM [1] | inhibition at 10 µM (SW480 colon cancer cells) | inhibition at 10 µM (IL-6 (THP-1 cells))
7 | > 10 µM | > 10 µM | 1.4 µM | c1ccc2[nH]c(-c3n[nH]c4ccc(-c5cncc(OC6CCNCC6)c5)nc34)nc2c1 [Compound 656, 3-(1H-Benzo[d]imidazol-2-yl)-5-(5-(piperidin-4-yloxy)pyridin-3-yl)-1H-pyrazolo[4,3-b]pyridine] | 4.9% | 20.8% | 
8 | > 10 µM | > 10 µM | > 10 µM | c1cc(-c2ccncc2)c2nc(-c3n[nH]c4ccc(-c5ccncc5)nc34)[nH]c2c1 [Compound 130, 5-(Pyridin-4-yl)-3-(4-(pyridin-4-yl)-1H-benzo[d]imidazol-2-yl)-1H-pyrazolo [4,3-b]pyridine] | 39.7% | 23.4% | 48.7%
9 | 3.3 µM | > 10 µM | > 10 µM | O=C(Nc1cncc(-c2ccc3[nH]nc(-c4nc5c(-c6ccc(Cl)s6)cccc5[nH]4)c3n2)c1)C1CCC1 [Compound 1056, N-(5-(3-(4-(5-Chlorothiophen-2-yl)-1H-benzo[d]imidazol-2-yl)-1H-pyrazolo [4,3-b]pyridin-5-yl)pyridin-3-yl)cyclobutanecarboxamide] |  | 0% | 47.8%
10 | 3.99 µM | > 10 µM | > 10 µM | CN(C)CC(=O)Nc1cncc(-c2ccc3[nH]nc(-c4nc5c(-c6cccc(F)c6)cccc5[nH]4)c3n2)c1 [Compound 969, 2-(Dimethylamino)-N-(5-(3-(4-(3-fluorophenyl)-1H-benzo[d]imidazol-2-yl)-1H-pyrazolo[4,3-b]pyridin-5-yl)pyridin-3-yl)acetamide] |  | 25.3% | 39%
11 | 2.62 µM | 6.69 µM | > 10 µM | c1cncc(-c2ccc3[nH]nc(-c4nc5c(-c6cccnc6)cccc5[nH]4)c3n2)c1 [Compound 88, 5-(Pyridin-3-yl)-3-(4-(pyridin-3-yl)-1H-benzo[d]imidazol-2-yl)-1H-pyrazolo [4,3-b]pyridine] |  |  | 31.8%
12 | 1.25 µM | 0.584 µM | > 10 µM | Clc1ccc(-c2cccc3[nH]c(-c4n[nH]c5ccc(-c6cncc(CN7CCCC7)c6)nc45)nc23)s1 [Compound 1049, 3-(4-(5-Chlorothiophen-2-yl)-1H-benzo[d]imidazol-2-yl)-5-(5-(pyrrolidin-1-ylmethyl)pyridin-3-yl)-1H-pyrazolo[4,3-b]pyridine] |  |  | 48.3%
13 | 1.12 µM | 0.722 µM | 3.32 µM | CN(C)CCNc1cc(F)cc(-c2cccc3[nH]c(-c4n[nH]c5ccc(-c6cncc(OCc7ccccc7)c6)nc45)nc23)c1 [Compound 790, N^1-(3-(2-(5-(5-(Benzyloxy)pyridin-3-yl)-1H-pyrazolo[4,3-b]pyridin-3-yl)-1H-benzo[d]imidazol-4-yl)-5-fluorophenyl)-N^2,N^2-dimethylethane-1,2-diamine] |  |  | 
14 | 2.1 µM | 5.82 µM | 5.18 µM | Fc1cccc(-c2cccc3[nH]c(-c4n[nH]c5ccc(-c6cncc(CN7CCC(F)(F)C7)c6)nc45)nc23)c1 [Compound 26, 5-(5-((3,3-Difluoropyrrolidin-1-yl)methyl)pyridin-3-yl)-3-(4-(3-fluorophenyl)-1H-benzo[d]imidazol-2-yl)-1H-pyrazolo[4,3-b]pyridine] |  |  | 
